Data from patent publication US20240350421A1, “Cationic Polymeric Nanoparticles and Their Uses in Treating Diseases” (University of Connecticut, priority 2021, published 2024).

Experiment: Cell proliferation (trypan blue) assay in HeLa cells
Type: cell-based
Conditions: human, read-out: reduction in cell viability
Procedure: 200,000 PBMC cells were seeded in a plate (12 well) overnight and treated with 2 mg/mL blank F2 NPs and 150 μL of lipofectamine. After 24 h, cells were stained with trypan blue dye and total live cells were determined by cell counter (Bio-Rad, USA). For cytotoxicity assay in HeLa cells, 50,000 HeLa cells were seeded in plates (24 well) and treated with paclitaxel (PTX) F2 NPs for 24 h, and cell viability was measured by staining with trypan blue dye.

CC(=O)O[C@H]1C(=O)[C@@]2(C)[C@H]([C@H](OC(=O)c3ccccc3)[C@]3(O)C[C@H](OC(=O)[C@H](O)[C@@H](NC(=O)c4ccccc4)c4ccccc4)C(C)=C1C3(C)C)[C@]1(OC(C)=O)CO[C@@H]1C[C@@H]2O [PTX suspension, paclitaxel] gave a cytotoxicity at 24 h of 17%.
